Assay results: patent US5430028A, “5-aminoquinolone carboxylic acid derivative and antibacterial agent containing the same as active ingredient” (SS Pharmaceutical Co., Ltd., priority 1992, dated 1995)
In brackets after ≈: the same amount, converted by molar mass.

Columns and labels:
Experiment in all cases: Antibacterial test (MIC), The Japan Chemotherapeutic Association method
[1] = test system: Streptococcus faecalis IFO 12964; type: cell-based; details: Enterococcus faecalis, IFO12964, Mueller Hinton Medium, 10^6 /ml, 37° C., determined after 24 hours
Procedure: (§1) Antibacterial activities against microorganisms shown in Tables 1-3 were measured according to the MIC measurement method of The Japan Chemotherapeutic Association. Sparfloxacin was used as a control agent.
(§2) Medium: Mueller Hinton Medium
(§3) A 1,000 micrograms/ml solution in 25% dimethylsulfoxide was prepared. A series of solutions with various concentrations (100 micrograms to 0.006 micrograms) were prepared by successively diluting the solution with sterilized water by a factor of 1/2.
(§4) Amount of inoculated bacteria: 10^6 /ml
(§5) Cultivation conditions: 37° C., 48 hours
(§6) Determination: After 24 hours.

[2] = test system: Klebsiella pneumoniae IFO 13541; type: cell-based; details: IFO13541, Mueller Hinton Medium, 10^6 /ml, 37° C., determined after 24 hours
Procedure: as §1, §2, §3, §4, §5, §6

[3] = test system: Pseudomonas aeruginosa IFO 13736; type: cell-based; details: IFO13736, Mueller Hinton Medium, 10^6 /ml, 37° C., determined after 24 hours
Procedure: as §1, §2, §3, §4, §5, §6

[4] = test system: Pseudomonas aeruginosa IFO 12582; type: cell-based; details: IFO12582, Mueller Hinton Medium, 10^6 /ml, 37° C., determined after 24 hours
Procedure: as §1, §2, §3, §4, §5, §6

[5] = test system: Staphylococcus epidermidis ATCC 12228; type: cell-based; details: ATCC12228, Mueller Hinton Medium, 10^6 /ml, 37° C., determined after 24 hours
Procedure: as §1, §2, §3, §4, §5, §6

Serratia marcescens NHL = type: cell-based; details: Mueller Hinton Medium, 10^6 /ml, 37° C., determined after 24 hours
Procedure: as §1, §2, §3, §4, §5, §6

[6] = test system: Staphylococcus aureus Smith; type: cell-based; details: Mueller Hinton Medium, 10^6 /ml, 37° C., determined after 24 hours
Procedure: as §1, §2, §3, §4, §5, §6

[7] = test system: Bacillus subtilis ATCC 6633; type: cell-based; details: ATCC6633, Mueller Hinton Medium, 10^6 /ml, 37° C., determined after 24 hours
Procedure: as §1, §2, §3, §4, §5, §6

Escherichia coli K-12 = type: cell-based; details: K12, Mueller Hinton Medium, 10^6 /ml, 37° C., determined after 24 hours
Procedure: as §1, §2, §3, §4, §5, §6

[8] = test system: Staphylococcus aureus FDA 209P; type: cell-based; details: FDA209P, Mueller Hinton Medium, 10^6 /ml, 37° C., determined after 24 hours
Procedure: as §1, §2, §3, §4, §5, §6

[9] = test system: Staphylococcus aureus Terashima; type: cell-based; details: Mueller Hinton Medium, 10^6 /ml, 37° C., determined after 24 hours
Procedure: as §1, §2, §3, §4, §5, §6

Salmonella typhi TD = type: cell-based; details: Salmonella enterica, 24 h
Procedure: as §1, §2, §3, §4, §5, §6

[10] = test system: Micrococcus lysodeikticus IFO 3333; type: cell-based; details: Micrococcus luteus, IFO3333, Mueller Hinton Medium, 10^6 /ml, 37° C., determined after 24 hours
Procedure: as §1, §2, §3, §4, §5, §6

Proteus rettgeri = type: cell-based; details: Providencia rettgeri, Mueller Hinton Medium, 10^6 /ml, 37° C., determined after 24 hours
Procedure: as §1, §2, §3, §4, §5, §6

[11] = test system: Pseudomonas aeruginosa P2; type: cell-based; details: Mueller Hinton Medium, 10^6 /ml, 37° C., determined after 24 hours
Procedure: as §1, §2, §3, §4, §5, §6

Sarcina lutea ATCC 9341 = type: cell-based; details: Micrococcus luteus, ATCC9341, Mueller Hinton Medium, 10^6 /ml, 37° C., determined after 24 hours
Procedure: as §1, §2, §3, §4, §5, §6

Escherichia coli O-1 = type: cell-based; details: O1, Mueller Hinton Medium, 10^6 /ml, 37° C., determined after 24 hours
Procedure: as §1, §2, §3, §4, §5, §6

Proteus vulgaris OXK = type: cell-based; details: Mueller Hinton Medium, 10^6 /ml, 37° C., determined after 24 hours
Procedure: as §1, §2, §3, §4, §5, §6

[12] = test system: Klebsiella pneumoniae ATCC 10031; type: cell-based; details: ATCC10031, Mueller Hinton Medium, 10^6 /ml, 37° C., determined after 24 hours
Procedure: as §1, §2, §3, §4, §5, §6

Shigella flexneri 2b = type: cell-based; details: Mueller Hinton Medium, 10^6 /ml, 37° C., determined after 24 hours
Procedure: as §1, §2, §3, §4, §5, §6

[13] = test system: M. R. Staphylococcus aureus 419; type: cell-based, Methicillin-resistant Staphylococcus aureus; details: M. R. Staphylococcus aureus 419 (MRSA); Mueller Hinton Medium, 10^6 /ml, 37° C., determined after 24 hours
Procedure: as §1, §2, §3, §4, §5, §6

[14] = test system: M. R. Staphylococcus aureus 421; type: cell-based, Methicillin-resistant Staphylococcus aureus; details: M. R. Staphylococcus aureus 421 (MRSA); Mueller Hinton Medium, 10^6 /ml, 37° C., determined after 24 hours
Procedure: as §1, §2, §3, §4, §5, §6

[15] = test system: M. R. Staphylococcus aureus 415; type: cell-based, Methicillin-resistant Staphylococcus aureus; details: M. R. Staphylococcus aureus 415 (MRSA); Mueller Hinton Medium, 10^6 /ml, 37° C., determined after 24 hours
Procedure: as §1, §2, §3, §4, §5, §6

[16] = test system: M. R. Staphylococcus aureus 395; type: cell-based, Methicillin-resistant Staphylococcus aureus; details: M. R. Staphylococcus aureus 395 (MRSA); Mueller Hinton Medium, 10^6 /ml, 37° C., determined after 24 hours
Procedure: as §1, §2, §3, §4, §5, §6

[17] = test system: M. R. Staphylococcus aureus 420; type: cell-based, Methicillin-resistant Staphylococcus aureus; details: M. R. Staphylococcus aureus 420 (MRSA); Mueller Hinton Medium, 10^6 /ml, 37° C., determined after 24 hours
Procedure: as §1, §2, §3, §4, §5, §6

| Structure (SMILES) | MIC [1] | MIC [2] | MIC [3] | MIC [4] | MIC [5] | MIC (Serratia marcescens NHL) | MIC [6] | MIC [7] | MIC (Escherichia coli K-12) | MIC [8] | MIC [9] | MIC (Salmonella typhi TD) | MIC [10] | MIC (Proteus rettgeri) | MIC [11] | MIC (Sarcina lutea ATCC 9341) | MIC (Escherichia coli O-1) | MIC (Proteus vulgaris OXK) | MIC [12] | MIC (Shigella flexneri 2b) | further results |
| --- | --- | --- | --- | --- | --- | --- | --- | --- | --- | --- | --- | --- | --- | --- | --- | --- | --- | --- | --- | --- | --- |
| Nc1c(F)c(N2CCNC(=O)CC2)c(Cl)c2c1c(=O)c(C(=O)O)cn2C1CC1 [1-10, 5-Amino-8-chloro-1-cyclopropyl-6-fluoro-7-(2,3,4,5,6,7-hexahydro-1H-1,4-diazepin-5-on-1-yl)-4-oxo-quinoline-3-carboxylic acid] | 0.2 µg/mL (≈ 0.489 µM) | 0.1 µg/mL (≈ 0.245 µM) | 6.25 µg/mL (≈ 15.3 µM) | 3.13 µg/mL (≈ 7.66 µM) | 0.024 µg/mL (≈ 0.0587 µM) | 1.56 µg/mL (≈ 3.82 µM) | 0.006 µg/mL (≈ 0.0147 µM) | 0.012 µg/mL (≈ 0.0294 µM) | 0.1 µg/mL (≈ 0.245 µM) | 0.012 µg/mL (≈ 0.0294 µM) | 0.1 µg/mL (≈ 0.245 µM) | 0.1 µg/mL (≈ 0.245 µM) | 0.05 µg/mL (≈ 0.122 µM) | 0.78 µg/mL (≈ 1.91 µM) | 12.5 µg/mL (≈ 30.6 µM) | 0.2 µg/mL (≈ 0.489 µM) | 0.1 µg/mL (≈ 0.245 µM) | 0.2 µg/mL (≈ 0.489 µM) | 0.05 µg/mL (≈ 0.122 µM) | 0.006 µg/mL (≈ 0.0147 µM) | MIC [13]: 0.024 µg/mL (≈ 0.0587 µM); MIC [14]: 0.024 µg/mL (≈ 0.0587 µM); MIC [15]: 0.012 µg/mL (≈ 0.0294 µM); MIC [16]: 0.024 µg/mL (≈ 0.0587 µM); MIC [17]: 0.012 µg/mL (≈ 0.0294 µM) |
| C[C@@H]1CN(c2c(F)c(N)c3c(=O)c(C(=O)O)cn(C4CC4)c3c2F)C[C@H](C)N1 [Spafloxacin, reference compound] | 0.39 µg/mL (≈ 0.994 µM) | 0.012 µg/mL (≈ 0.0306 µM) | 0.78 µg/mL (≈ 1.99 µM) | 1.56 µg/mL (≈ 3.98 µM) | 0.2 µg/mL (≈ 0.51 µM) | 0.2 µg/mL (≈ 0.51 µM) | 0.05 µg/mL (≈ 0.127 µM) | 0.024 µg/mL (≈ 0.0612 µM) | 0.012 µg/mL (≈ 0.0306 µM) | 0.024 µg/mL (≈ 0.0612 µM) | 0.1 µg/mL (≈ 0.255 µM) | 0.006 µg/mL (≈ 0.0153 µM) | 0.39 µg/mL (≈ 0.994 µM) | 0.1 µg/mL (≈ 0.255 µM) | 1.56 µg/mL (≈ 3.98 µM) | 1.56 µg/mL (≈ 3.98 µM) | 0.012 µg/mL (≈ 0.0306 µM) | 0.05 µg/mL (≈ 0.127 µM) | 0.006 µg/mL (≈ 0.0153 µM) | 0.006 µg/mL (≈ 0.0153 µM) | MIC [13]: 0.05 µg/mL (≈ 0.127 µM); MIC [14]: 0.05 µg/mL (≈ 0.127 µM); MIC [15]: 0.05 µg/mL (≈ 0.127 µM); MIC [16]: 0.1 µg/mL (≈ 0.255 µM); MIC [17]: 0.1 µg/mL (≈ 0.255 µM) |
| CN1CCN(c2c(F)c(N)c3c(=O)c(C(=O)O)cn(C4CC4)c3c2F)CCC1=O [1-8, 5-Amino-1-cyclopropyl-6,8-difluoro-7-(4-methyl-2,3,4,5,6,7-hexahydro-1H-1,4-diazepin-5-on-1-yl)-1,4-dihydro-4-oxoquinoline-3-carboxylic acid] | 0.2 µg/mL (≈ 0.492 µM) | 0.1 µg/mL (≈ 0.246 µM) | 3.13 µg/mL (≈ 7.7 µM) | 6.25 µg/mL (≈ 15.4 µM) | 0.1 µg/mL (≈ 0.246 µM) | 1.56 µg/mL (≈ 3.84 µM) | 0.012 µg/mL (≈ 0.0295 µM) | 0.006 µg/mL (≈ 0.0148 µM) | 0.1 µg/mL (≈ 0.246 µM) | 0.006 µg/mL (≈ 0.0148 µM) | 0.05 µg/mL (≈ 0.123 µM) | 0.1 µg/mL (≈ 0.246 µM) | 0.1 µg/mL (≈ 0.246 µM) | 0.39 µg/mL (≈ 0.96 µM) | 12.5 µg/mL (≈ 30.8 µM) | 0.39 µg/mL (≈ 0.96 µM) | 0.1 µg/mL (≈ 0.246 µM) | 0.1 µg/mL (≈ 0.246 µM) | 0.006 µg/mL (≈ 0.0148 µM) | 0.006 µg/mL (≈ 0.0148 µM) | MIC [13]: 0.024 µg/mL (≈ 0.0591 µM); MIC [14]: 0.024 µg/mL (≈ 0.0591 µM); MIC [15]: 0.024 µg/mL (≈ 0.0591 µM); MIC [16]: 0.05 µg/mL (≈ 0.123 µM); MIC [17]: 0.05 µg/mL (≈ 0.123 µM) |
| Nc1c(F)c(N2CCNC(=O)CC2)c(F)c2c1c(=O)c(C(=O)O)cn2C1CC1 [Compound No. 1-2, 5-Amino-1-cyclopropyl-6,8-difluoro-7-(2,3,4,5,6,7-hexahydro-1H-1,4-diazepin-5-on-1-yl)-1,4-dihydro-4-oxo-quinoline-3-carboxylic acid] | 0.2 µg/mL (≈ 0.51 µM) | 0.05 µg/mL (≈ 0.127 µM) | 3.13 µg/mL (≈ 7.98 µM) | 3.13 µg/mL (≈ 7.98 µM) | 0.05 µg/mL (≈ 0.127 µM) | 0.78 µg/mL (≈ 1.99 µM) | 0.006 µg/mL (≈ 0.0153 µM) | 0.006 µg/mL (≈ 0.0153 µM) | 0.05 µg/mL (≈ 0.127 µM) | 0.012 µg/mL (≈ 0.0306 µM) | 0.05 µg/mL (≈ 0.127 µM) | 0.05 µg/mL (≈ 0.127 µM) | 0.05 µg/mL (≈ 0.127 µM) | 0.39 µg/mL (≈ 0.994 µM) | 6.25 µg/mL (≈ 15.9 µM) | 0.39 µg/mL (≈ 0.994 µM) | 0.05 µg/mL (≈ 0.127 µM) | 0.05 µg/mL (≈ 0.127 µM) | 0.006 µg/mL (≈ 0.0153 µM) | 0.006 µg/mL (≈ 0.0153 µM) | MIC [13]: 0.024 µg/mL (≈ 0.0612 µM); MIC [14]: 0.012 µg/mL (≈ 0.0306 µM); MIC [15]: 0.024 µg/mL (≈ 0.0612 µM); MIC [16]: 0.05 µg/mL (≈ 0.127 µM); MIC [17]: 0.05 µg/mL (≈ 0.127 µM) |
